This note sets out measurements from ChEMBL document CHEMBL4052712, “Design and optimization of highly-selective, broad spectrum fungal CYP51 inhibitors” (Bioorg Med Chem Lett, 2017).

In data set [1] the target is T1, Lanosterol 14-alpha demethylase (Trichophyton rubrum (strain ATCC MYA-4607 / CBS 118892) (Athlete'sfoot fungus)) (UniProt F2SHH3).
T1 sequence (whole entry): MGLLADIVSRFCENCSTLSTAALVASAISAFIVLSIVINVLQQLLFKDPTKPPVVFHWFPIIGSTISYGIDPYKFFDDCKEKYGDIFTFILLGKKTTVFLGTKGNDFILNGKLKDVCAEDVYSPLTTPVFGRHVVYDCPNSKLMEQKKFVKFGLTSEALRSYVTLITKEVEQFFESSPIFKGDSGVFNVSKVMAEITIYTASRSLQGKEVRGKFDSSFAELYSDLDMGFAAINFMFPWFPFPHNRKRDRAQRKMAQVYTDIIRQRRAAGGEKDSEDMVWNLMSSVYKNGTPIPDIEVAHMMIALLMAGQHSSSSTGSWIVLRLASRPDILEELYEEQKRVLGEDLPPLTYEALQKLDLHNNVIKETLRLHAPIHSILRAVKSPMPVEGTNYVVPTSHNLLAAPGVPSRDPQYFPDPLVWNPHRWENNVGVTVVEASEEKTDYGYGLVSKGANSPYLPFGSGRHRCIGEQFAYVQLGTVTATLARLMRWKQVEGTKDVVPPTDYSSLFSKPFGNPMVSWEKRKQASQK
The data set is described as follows: Inhibition of CYP51 in Trichophyton rubrum assessed as inhibition of microbe growth incubated for 48 hrs by CLSI M27-A3 guideline based method.

For data set [2], the target named is Lanosterol 14-alpha demethylase (Candida albicans (strain SC5314 / ATCC MYA-2876) (Yeast), UniProt P10613). Kind of data set: Inhibition of CYP51 in Candida albicans assessed as inhibition of microbe growth incubated for 48 hrs by CLSI M27-A3 guideline based method.
The target in data set [3] is T2, Lanosterol 14-alpha demethylase (Aspergillus) (UniProt B8NUK6+Q9P8R0+G4WW85). Kind of data set: Inhibition of CYP51 in Aspergillus fumigatus assessed as inhibition of microbe growth incubated for 48 to 168 hrs by CLSI M27-A3 guideline based method.
For data set [4], the target named is Lanosterol 14-alpha demethylase (Candida glabrata (strain ATCC 2001 / BCRC 20586 / JCM 3761 / NBRC 0622 /NRRL Y-65 / CBS 138) (Yeast) (Nakaseomyces glabratus)) (UniProt P50859). Kind of data set: Inhibition of CYP51 in Candida glabrata assessed as inhibition of microbe growth incubated for 48 hrs by CLSI M27-A3 guideline based method.
The subject of data set [5] is Cryptococcus neoformans. Kind of data set: Inhibition of CYP51 in Cryptococcus neoformans assessed as inhibition of microbe growth incubated for 48 hrs by CLSI M27-A3 guideline based method.
Data set [6] has as its target T2, Lanosterol 14-alpha demethylase (Aspergillus). The data set is described as follows: Inhibition of CYP51 in Aspergillus flavus assessed as inhibition of microbe growth incubated for 48 to 168 hrs by CLSI M27-A3 guideline based method.
Data set [7] addresses T3, Cytochrome P450 11B1, mitochondrial (Homo sapiens, UniProt P15538).
T3 sequence (P15538 whole entry): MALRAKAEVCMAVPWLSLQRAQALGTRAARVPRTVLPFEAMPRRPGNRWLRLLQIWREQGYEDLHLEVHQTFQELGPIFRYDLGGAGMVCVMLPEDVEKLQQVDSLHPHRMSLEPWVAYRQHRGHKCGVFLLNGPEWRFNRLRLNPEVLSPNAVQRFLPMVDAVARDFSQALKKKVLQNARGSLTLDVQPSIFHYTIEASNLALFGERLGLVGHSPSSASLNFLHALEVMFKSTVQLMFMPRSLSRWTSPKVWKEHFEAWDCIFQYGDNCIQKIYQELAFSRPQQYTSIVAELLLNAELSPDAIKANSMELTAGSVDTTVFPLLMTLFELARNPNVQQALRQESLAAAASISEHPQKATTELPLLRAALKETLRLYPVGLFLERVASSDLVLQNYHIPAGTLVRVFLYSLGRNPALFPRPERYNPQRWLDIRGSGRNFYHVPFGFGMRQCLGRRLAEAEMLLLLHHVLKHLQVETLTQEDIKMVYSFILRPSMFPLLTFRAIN
Kind of data set: Inhibition of CYP11B1 in human hepatocyte microsomes using deoxycortisol substrate by HPLC/MS/MS method. Format: ADME.

The target in data set [8] is T4, Cytochrome P450 11B2, mitochondrial (Homo sapiens, UniProt P19099).
T4 sequence (P19099 whole entry): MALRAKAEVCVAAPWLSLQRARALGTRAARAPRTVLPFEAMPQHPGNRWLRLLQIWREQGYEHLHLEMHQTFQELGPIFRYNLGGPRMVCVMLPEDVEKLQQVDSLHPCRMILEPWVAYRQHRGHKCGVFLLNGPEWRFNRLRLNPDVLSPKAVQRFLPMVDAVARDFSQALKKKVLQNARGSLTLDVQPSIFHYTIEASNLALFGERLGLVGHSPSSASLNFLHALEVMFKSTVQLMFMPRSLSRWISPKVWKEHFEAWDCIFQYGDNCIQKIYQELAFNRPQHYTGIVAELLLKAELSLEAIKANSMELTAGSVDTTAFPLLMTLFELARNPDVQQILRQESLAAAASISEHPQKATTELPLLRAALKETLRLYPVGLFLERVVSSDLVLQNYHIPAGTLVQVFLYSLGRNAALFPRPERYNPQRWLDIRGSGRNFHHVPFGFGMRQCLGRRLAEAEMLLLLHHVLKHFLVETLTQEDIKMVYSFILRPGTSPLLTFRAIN
Kind of data set: Inhibition of CYP11B2 in human hepatocyte microsomes using deoxycorticosteroid substrate by HPLC/MS/MS method. Format: ADME.

In data set [9] the target is T5, Steroid 17-alpha-hydroxylase/17,20 lyase (Homo sapiens, UniProt P05093).
T5 sequence (P05093 whole entry): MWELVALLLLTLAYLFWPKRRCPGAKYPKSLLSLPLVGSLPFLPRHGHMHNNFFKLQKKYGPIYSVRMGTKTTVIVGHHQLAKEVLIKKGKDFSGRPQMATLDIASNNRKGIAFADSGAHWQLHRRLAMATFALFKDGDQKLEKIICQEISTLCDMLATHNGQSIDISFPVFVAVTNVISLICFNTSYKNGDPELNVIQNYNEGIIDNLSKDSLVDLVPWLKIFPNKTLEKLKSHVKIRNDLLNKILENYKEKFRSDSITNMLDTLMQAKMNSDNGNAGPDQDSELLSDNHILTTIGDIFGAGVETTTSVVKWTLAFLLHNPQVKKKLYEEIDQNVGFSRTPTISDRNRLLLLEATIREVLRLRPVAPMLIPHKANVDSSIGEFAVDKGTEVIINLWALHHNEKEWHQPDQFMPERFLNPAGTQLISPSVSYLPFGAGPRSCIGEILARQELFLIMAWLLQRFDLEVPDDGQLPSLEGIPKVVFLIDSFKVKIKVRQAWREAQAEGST
The data set is described as follows: Inhibition of CYP17 lyase in human hepatocyte microsomes using 17a-hydroxypregnenolone substrate by HPLC/MS/MS method. Type of data set: ADME.

Data set [10] has as its target T5, Steroid 17-alpha-hydroxylase/17,20 lyase. The data set is described as follows: Inhibition of CYP17 hydroxylase in human hepatocyte microsomes using pregnenolone substrate by HPLC/MS/MS method. Format: ADME.
Data set [11] addresses T6, Aromatase (Homo sapiens, UniProt P11511).
T6 sequence (P11511 whole entry): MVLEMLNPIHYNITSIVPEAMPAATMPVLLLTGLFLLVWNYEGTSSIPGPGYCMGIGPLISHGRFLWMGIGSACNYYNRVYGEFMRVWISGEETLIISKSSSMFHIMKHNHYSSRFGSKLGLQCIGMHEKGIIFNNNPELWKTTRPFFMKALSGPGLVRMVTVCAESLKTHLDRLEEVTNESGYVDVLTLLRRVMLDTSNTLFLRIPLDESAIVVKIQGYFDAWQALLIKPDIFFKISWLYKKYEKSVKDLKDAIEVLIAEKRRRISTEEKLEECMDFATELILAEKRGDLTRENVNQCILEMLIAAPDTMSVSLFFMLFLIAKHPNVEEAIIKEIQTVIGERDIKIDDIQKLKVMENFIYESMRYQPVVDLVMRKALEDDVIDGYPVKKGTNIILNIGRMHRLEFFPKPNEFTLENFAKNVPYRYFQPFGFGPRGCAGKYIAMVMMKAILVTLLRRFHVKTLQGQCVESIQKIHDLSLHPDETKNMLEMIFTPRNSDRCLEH
Kind of data set: Inhibition of CYP19 in human hepatocyte microsomes using testosterone substrate by HPLC/MS/MS method. Type of data set: ADME.

Lanosterol 14-alpha demethylase (Candida glabrata (strain ATCC 2001 / BCRC 20586 / JCM 3761 / NBRC 0622 /NRRL Y-65 / CBS 138) (Yeast) (Nakaseomyces glabratus)), sequence (P50859 whole entry): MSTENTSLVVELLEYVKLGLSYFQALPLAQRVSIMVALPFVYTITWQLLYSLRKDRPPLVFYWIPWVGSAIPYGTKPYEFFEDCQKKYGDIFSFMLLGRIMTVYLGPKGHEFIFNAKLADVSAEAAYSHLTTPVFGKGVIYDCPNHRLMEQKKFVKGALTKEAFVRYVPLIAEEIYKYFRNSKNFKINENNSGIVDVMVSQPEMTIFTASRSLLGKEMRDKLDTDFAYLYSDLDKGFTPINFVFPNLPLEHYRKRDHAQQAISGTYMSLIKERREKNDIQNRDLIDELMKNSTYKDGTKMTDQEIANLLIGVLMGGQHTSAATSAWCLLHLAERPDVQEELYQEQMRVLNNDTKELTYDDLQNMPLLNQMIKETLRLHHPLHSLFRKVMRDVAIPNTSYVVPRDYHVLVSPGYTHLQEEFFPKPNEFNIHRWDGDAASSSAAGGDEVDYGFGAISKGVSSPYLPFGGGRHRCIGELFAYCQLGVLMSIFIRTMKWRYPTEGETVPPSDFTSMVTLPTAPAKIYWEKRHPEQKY
Lanosterol 14-alpha demethylase, sequence (P10613 whole entry): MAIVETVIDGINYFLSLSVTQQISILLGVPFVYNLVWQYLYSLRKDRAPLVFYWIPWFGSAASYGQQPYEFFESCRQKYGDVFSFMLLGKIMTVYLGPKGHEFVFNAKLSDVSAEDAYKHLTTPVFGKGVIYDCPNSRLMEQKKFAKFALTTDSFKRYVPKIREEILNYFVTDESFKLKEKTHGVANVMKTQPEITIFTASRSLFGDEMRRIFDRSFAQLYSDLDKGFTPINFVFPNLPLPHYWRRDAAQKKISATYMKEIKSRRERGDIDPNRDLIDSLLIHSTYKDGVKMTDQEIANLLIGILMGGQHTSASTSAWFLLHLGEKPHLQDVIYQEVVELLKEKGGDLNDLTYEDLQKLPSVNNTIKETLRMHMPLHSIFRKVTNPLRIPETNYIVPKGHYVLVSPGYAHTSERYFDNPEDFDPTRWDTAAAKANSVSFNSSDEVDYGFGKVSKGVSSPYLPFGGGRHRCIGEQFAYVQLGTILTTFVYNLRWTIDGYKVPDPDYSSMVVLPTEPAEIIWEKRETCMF

As a reminder, the IC50 is the concentration that inhibits the measured activity by half. A higher IC50 goes with weaker potency. For the molecule `OC(Cn1cncn1)(Cn1cncn1)c1ccc(F)cc1F` [FLUCONAZOLE], the MIC50 in data set [1] worked out at 16 µg/mL; in [2] it was 0.5 µg/mL; in data set [4], 8 µg/mL; in data set [5], 0.25 µg/mL. The MIC100 in data set [3] and in data set [6] was above 64 µg/mL in each case. Also, the IC50 in data set [7] was 30 µM; in data set [8] it was 13 µM; in [9] it was above 200 µM; in [10] it was above 200 µM; in data set [11] it was 22 µM.

As for `N#Cc1ccc(COc2ccc(C#Cc3ccc(C(F)(F)C(O)(Cn4cnnn4)c4ccc(F)cc4F)nc3)cc2)cc1` (single isomer, unassigned; (+)), the MIC50 in data set [1] was determined as 0.25 µg/mL; in data set [4] it was 0.12 µg/mL; in data set [5], 0.0019 µg/mL. Besides, the MIC100 in data set [3] stood at 0.25 µg/mL; in [6], 0.5 µg/mL.

As for `CC[C@@H]([C@H](C)O)n1ncn(-c2ccc(N3CCN(c4ccc(OC[C@@H]5CO[C@@](Cn6cncn6)(c6ccc(F)cc6F)C5)cc4)CC3)cc2)c1=O` [POSACONAZOLE], the MIC50 turned out to be 0.25 µg/mL in data set [1], 0.015 µg/mL in [2], 0.12 µg/mL in data set [4] and 0.0078 µg/mL in data set [5]. For the same molecule, the MIC100 is 0.062 µg/mL in [3] and 0.25 µg/mL in data set [6]. The IC50 in [7] was 0.31 µM; in [8], 0.021 µM; in data set [9], 0.042 µM; in [10], 1.8 µM; in [11], 8.4 µM.
